Reference: patent US10781229B2, “Tris- or neopentyl glycol-based amphiphiles and uses thereof” (Industry-University Cooperation Foundation Hanyang …, priority 2015, dated 2020)

Tests used:
[1] = Hydrodynamic radius and size distribution of micelles by dynamic light scattering (DLS); type: physicochemical
Procedure: A method of measuring the radius of a micelle is not specifically limited and may be any method generally known in the art. For example, the radius may be measured by a dynamic light scattering (DLS) experiment.
In particular, critical micellar concentrations (CMCs) were measured using hydrophobic fluorescence staining and diphenylhexatriene (DPH), and hydrodynamic radii (Rh) of micelles formed of each material were measured by a dynamic light scattering (DLS) experiment. Measured results are compared to values of DDM as an existing amphipathic molecule (detergent).
Meanwhile, size distributions of the micelles formed of TDTs and NDTs were measured using DLS. Results are illustrated in FIG. 5. TDTs or NDTs were respectively used in an amount of 0.5% by weight. As a result, micelles of TDTs or NDTs were measured as forming a single community.

[2] = biological target: LeuT E192C^TMR (Aquifex aeolicus, UniProt O67854, E192C); experiment: Site-directed fluorescence (iodide) quenching of LeuT E192C-TMR, Stern-Volmer analysis; type: biochemical; details: for Δ KSV: leucine-induced change of iodide accessibility of TMR, CMC+0.04% by weight detergent, means [s.e.m. interval]; for Ksv when leucine is absent: no leucine, LeuT E192C-TMR in CMC+0.04% by weight detergent
Description: A principle of this experiment is as follows: A cysteine residue was inserted into a 192th LeuT site (E192C), followed by coupling with a thiol-reactive fluorophore (tetramethylrhodamine-5-maleimide, TMR). The prepared LeuT E192C^TMR, as TMR-coupled LeuT, is an excellent system to sensitively monitor protein structure change in response to ligand coupling. […] Due to such change, TMR fluorescence molecules exposed to an aqueous solution become closer to iodide (I^−), as a quencher dissolved in water, whereby strong fluorescence quenching is caused. TMR quenching intensity by leucine coupling may be represented by Stern-Volmer plotting and thus structural flexibility of a protein may be directly measured. Ligand bindability of the TMR-labeled transporter was measured using SPA while increasing the amount of [^3H]leucine.
In particular, structure, expression, purification, and fluorescence labeling were performed according to the following methods. In accordance with a method disclosed in a paper published by C. B. Billesbolle, et al. (J. Biol. Chem. 2015, 290, 26725-26738), a leucine transporter mutant (LeuT E192C^TMR) was produced and purification and labeling were carried out. In summary, a residue of the E192 was mutated with cysteine using QuikChange (Agilent Technologies) such that fluorescence coupling was accomplished by maleimide labeling. The LeuT mutant was expressed in E. coli C41 (DE3). A membrane of DE3 was disrupted and LeuT was solubilized with 1% (w/v) DDM. Subsequently, LeuT solubilized with the amphipathic molecule was fixed to a Chelating Sepharose Fast Flow resin (GE Healthcare, Little Chalfont, UK), followed by washing with tetramethylrhodamine-5-maleimide (TMR, Life Technologies, Carlsbad, Calif., USA) at 4° C. for 16 hours. Subsequently, LeuT was eluted with a buffer containing 300 mM imidazole, 20 mM Tris-HCl (pH 8.0), 1 mM NaCl, 199 mM KCl, and 0.05% DDM.
Fluorescence spectroscopy was carried out according to the following method. A fluorescence-based experiment was carried out by diluting 0.5 μg ml^−1 of fluorescence-labeled LeuT with buffer A supplemented with CMC+0.04% by weight of DDM, MNG-3 or NDT-C11. Leucine was separately added to specimen aliquots of LeuT for each concentration and incubated for one hour in a room temperature shaker. Steady-state fluorescence intensities were recorded with a FluoroMax4 (Horiba Scientific, Edison, N.J., USA) at λem=572 nm and excitation source at λex=552 nm at 25° C. Quencher-titration was carried out by successive additions of small specimen aliquots containing 1 M KI into buffer A supplemented with 10 mM Na2S2O3. Fluorescence intensities (F) were corrected for sample dilution and normalized to the initial intensity (F0) of a sample. All data was analyzed by linear-(Stern-Volmer plot) or nonlinear regression in GraphPad Prism 6.0 (GraphPad Software). The degree of iodide (I^−) accessibility was obtained from the following Stern-Volmer equation: F0/F=1+Ksv×[Q], where F0/F is normalized fluorescence quenching, Ksv is a Stern-Volmer constant, and [Q] is quencher concentration. When means are calculated as a log, the means are shown as pIC50 and the [s.e.m. interval] from pIC50±s.e.m.
Values of radioligand binding constants were calculated through SPA saturation binding experiments. Values of iodide quenching-response constants and ΔKSV were calculated from a site-directed fluorescence quenching spectroscopy. The affinity (Kd) is shown as means±s.e.m and ΔKSV is shown as means [s.e.m. interval]. All data is shown as means of three to four independent experiments.

[3] = biological target: T1, melibiose permease (MelB), MelBSt (Salmonella typhimurium, UniProt P30878); experiment: MelB extraction efficiency and stability by SDS-PAGE and western immunoblotting; details: 1.5% by weight, 55° C., 90 minutes
T1 construct: made in house; host or cells: 'Salmonella typhimurium DW2 cell (melB and lacZY)', plasmid pK95AHB/WT MelBSt/CH10
T1 sequence (P30878 whole entry): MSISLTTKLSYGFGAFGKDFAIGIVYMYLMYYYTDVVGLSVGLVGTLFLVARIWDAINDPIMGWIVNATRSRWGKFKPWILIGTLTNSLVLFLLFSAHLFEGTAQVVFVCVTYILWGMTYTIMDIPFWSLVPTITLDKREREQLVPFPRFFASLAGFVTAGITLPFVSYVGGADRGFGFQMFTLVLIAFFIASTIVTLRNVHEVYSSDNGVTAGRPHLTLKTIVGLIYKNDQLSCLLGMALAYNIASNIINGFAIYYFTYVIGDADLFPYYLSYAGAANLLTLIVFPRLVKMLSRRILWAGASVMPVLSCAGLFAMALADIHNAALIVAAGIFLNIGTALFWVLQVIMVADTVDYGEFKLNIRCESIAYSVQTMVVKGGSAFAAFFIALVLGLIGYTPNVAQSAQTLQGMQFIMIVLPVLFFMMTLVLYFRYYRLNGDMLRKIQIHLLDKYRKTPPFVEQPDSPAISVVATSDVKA
Procedure: Experiments to measure the extraction efficiency and structural stability of a Salmonella typhimurium melibiose permease (MelB) protein by TDTs or NDTs were conducted. The MelB protein was extracted using TDTs, NDTs, or DDM and then the amounts and structures of extracted proteins were quantitatively analyzed by SDS-PAGE and western immunoblotting. The concentrations of the used amphipathic molecules were 1.5% by weight. Protein extraction was carried out at four temperatures (0, 45, 55 or 65° C.) for 90 minutes to simultaneously evaluate the protein extraction efficiency and stabilization ability of the amphipathic molecules.
In particular, in accordance with a method disclosed in a paper (P. S. Chae, et al., Chemistry. 2013, 19, 15645-15651) published by the present inventors, a protein (MelBSt) was produced using a pK95AHB/WT MelBSt/CH10 plasmid and a Salmonella typhimurium DW2 cell (melB and lacZY) to encode wild-type MelB having a 10-His tag at a C-terminal. In accordance with a method disclosed in a paper (Nat. Commun. 2014, 5, 3009) published by A. S. Ethayathulla, et al., cell proliferation and membrane preparation was carried out. Protein analysis was performed using a Micro BCA kit (Thermo Scientific, Rockford, Ill.). So as to measure the solubilization/stability of MelBSt, a membrane sample including MelBSt (final protein concentration of 10 mg/mL) was mixed with a solubilization buffer (20 mM sodium phosphate, pH 7.5, 200 mM NaCl, 10% glycerol, and 20 mM melibiose) and 1.5% (w/v) DDM, TDTs or NDTs. An extracted product was incubated at four temperatures (0, 45, 55 and 65° C.) for 90 minutes. Ultracentrifugation was carried out for 45 minutes at 4° C. and 355,590 g by means of a Beckman Optima™ MAX ultracentrifuge and a TLA-100 rotor. Subsequently, 20 μg of a protein was separated by SDS-16% PAGE and then subjected to immunoblotting with a Penta-His-HRP antibody (Qiagen, Germantown, Md.).

SMILES	Rh (hydrodynamic radius of micelles) [1] [nm]	Δ KSV [2] [M⁻¹]	Ksv when leucine is absent [2]	MelB dissolved / solubilization ability [3]	Structural fluidity of the LeuT protein ([2]; conclusion from ΔKsv)
CCCCCCCCCCCCOC1OC(CO)C(OC2OC(CO)C(O)C(O)C2O)C(O)C1O [DDM, n-dodecyl-β-D-maltopyranoside, reference compound]	3.4 ± 0.0	1.1	up to 1.6	hardly detected	–
CCCCCCCCCCCC(CCCCCCCCCCC)COCC(CO[C@@H]1OC(CO)[C@@H](O)C(O)C1O)(CO[C@@H]1OC(CO)[C@@H](O)C(O)C1O)CO[C@@H]1OC(CO)[C@@H](O)C(O)C1O (stereo partly drawn) [NDT-C11]	3.5 ± 0.0	0.9	up to 2.5	most excellent	satisfactorily maintains the structural fluidity
